Legend:
neutrophils [1] = assay: Neutrophil apoptosis/survival by phosphatidylserine externalization after annexin-V and 7-AAD labeling; type: cell-based, human; settings: 15 h at 37° C.; anti-Fas mAb 10 ng/ml, gliotoxin 2 mg/ml
Procedure: Analysis of apoptosis. Neutrophil apoptosis was triggered by incubating neutrophils at 37° C. alone (constitutive apoptosis) or with anti-Fas mAb (10 ng/ml; Beckman-Coulter) or gliotoxin ([…]; Sigma) (Ward et al. 1999, J. Biol. Chem. 274:4309-4318) for the indicated times. Neutrophil apoptosis was evaluated by phosphatidylserine externalization after annexin-V and 7-AAD labeling (Kantari et al. 2007, Blood 110:4086-4095); mitochondrial depolarization after DiOC6 labeling (Moriceau et al. 2009, J. Immuno1.182:7254-7263); caspase-3 and caspase-8 activities measured by spectrophotometry (Biovision) in neutrophil lysates. In DMF-differentiated-PLB985 cells, apoptosis was triggered by gliotoxin or by rTRAIL (10 ng/ml; RD System) (Yin et al. 2005, Int. J. Biochem. Cell Biol. 37:1696-1708) and caspase-8 and caspase-9 activities were determined after gating on CD11b^+ cells using the Caspase-Glow® assay (Promega). Apoptosis-induced chromatin condensation and DNA fragmentation were assessed, respectively, after DNA staining with the blue fluorescent dye Hoechst (5 mg/ml) and propidium-iodide staining (Goepel et al. 2004, J. Leukoc. Biol. 75:836-843). Carboxyp21 ([…], SEQ ID NO: 24) corresponding to the p21 carboxy-terminus sequence (residues 141-160) and containing a RYIRS carboxy-terminal extension to facilitate its cell entry was synthesized and purified (Genecust). A modified peptide in which the charged amino acids responsible for its binding to PCNA have been changed according to dynamic simulation studies ([…], SEQ ID NO: 25) served as control. The effect of PS-341 (LC Laboratories) and MG132 were tested on neutrophil apoptosis and PCNA expression as indicated.

BM neutrophils = assay: Apoptosis of BM-isolated mouse neutrophils by annexin-V labelling; type: cell-based; settings: increasing gliotoxin concentrations
Procedure: In vivo model of LPS-induced airway inflammation. Peripheral blood neutrophils and BM mature neutrophils from femurs were isolated using Percoll density gradient, as described in Mocsai et al. (2002, Immunity 16:547-558). Intranasal LPS administration in mice and collection of cells from BALF was performed as described in Chignard et al. (2000, Am. J. Physiol. Lung Cell Mol. Physiol. 279:L1083-1090). Mice were treated in accordance with Inserm guidelines in compliance with European animal-welfare regulations. Seven-week-old male C57B1/6 mice, weighing 25-30 g (Charles Rivers), were anesthetized by intra-muscular injection of a mixture of ketamine and xylasine, and then 330 μg/kg of LPS dissolved in 50 μl of saline were deposited intranasally. At different times, animals were killed by an intraperitoneal injection of a lethal dose of sodium pentobarbital (Sanofi) to isolate lung neutrophils. The trachea of each mouse was then cannulated and BAL performed with a syringe and multiple cycles of saline instillation (0.5 ml) and aspiration to obtain a BALF volume of 4 ml. The latter was centrifuged, pelleted cells were collected and differential cell counts made after cytospin centrifugation and staining with Diff-Quik products. BAL neutrophils were isolated by Ficoll density gradient centrifugation. […]

neutrophils [2] = settings: report; cited from earlier work
[3] = report; cited from earlier work

Structure (SMILES) | Increase of annexin-V+ 7-AAD− cells (neutrophils [1]) | Apoptosis of BM neutrophils by annexin-V labelling (BM neutrophils) | Neutrophil apoptosis (neutrophils [2]) | Inflammation resolution in vivo [3]
CN1C(=O)[C@]23CC4=CC=C[C@H](O)[C@H]4N2C(=O)[C@@]1(CO)SS3 [gliotoxin, reference compound] | further enhanced | trigger apoptosis in BM neutrophils in a dose-dependent manner |  | 
CC[C@H](CO)Nc1nc(NCc2ccccc2)c2ncn(C(C)C)c2n1 [roscovitine] |  |  | triggers neutrophil apoptosis | promotes inflammation resolution in vivo

Reference: patent publication US20130059773A1, “COMPOUNDS FOR THE TREATMENT OF INFLAMMATION AND NEUTROPENIA” (priority 2010, published 2013)
